Consider 13 compounds from US20250332112A1, “IONIZABLE CATIONIC LIPIDS FOR LIPID NANOPARTICLES” (GENEVANT SCIENCES GMBH, priority 2022, published 2025).

Data set [1] is described as follows: Parent ionizable lipid remaining in liver at 6 h after luciferase mRNA LNP (LC-MS). Type of data set: in vivo. The following applies: 6 h after IV 0.5 mg/kg Luciferase mRNA LNP. As for the experimental part: Liver tissues were treated with PBS and homogenized with a FastPrep machine, 3 cycles of 5 m/s×15 s. Homogenates from the PBS-treated control animals was pooled and used for standard curve preparation. Samples were extracted into a deep well plate with 250 μL of an internal suitability standard. Plates were centrifuged for 15 min at 4° C. and 2000 rpm. Analysis was performed using an Agilent 6520 QTOF coupled to an Agilent 1290 UHPLC, using reverse-phase LC separation. Quantitation of the ionizable lipid was by MS/MS against a calibration curve spiked into appropriately matched blank matrix. Calibration used a similar class of synthetic lipid as internal standard.
At 6 h post-dose, some treatment groups reported lower levels of novel ionizable lipid in mouse liver compared to the benchmark (Tables 16-18).

Data set [2] relates to luciferase activity in the liver. Put plainly: Luciferase activity in liver after intravenous luciferase mRNA LNP. Type of data set: in vivo. Particulars: 0.5 mg/kg IV, 6 h post-IV administration, BALB/c mice (n = 4).
Data set [3] can be described thus: Particle characteristics of LNPs containing luciferase mRNA and novel ionizable lipids. Type of data set: physicochemical. The following applies: luciferase mRNA LNP 1.6:54.6:32.8:10.9. In outline: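 LNPs made from PEG-lipid, ionizable lipid, cholesterol and phospholipid in ethanol, T-mixed with luciferase mRNA in 100 mM acetate pH 5. Products were dialysed, concentrated, and dialysed into 5 mM Tris, 10% sucrose, pH 8, then 0.2 μm filtered. mRNA was measured by RiboGreen, and size and polydispersity by dynamic light scattering on a Zetasizer.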

Where [4] appears, read: Table 16, female BALB/c mice (n = 4).
Where [5] appears, read: Table 18, female BALB/c mice (n = 4).

As for `CCCCC/C=C\CCCC(CCC/C=C\CCCCC)=NNC(=O)CC(CCCCCCCCC)N(CCCN(C)C)C(=O)C(CCCCCC)CCCCCCCC` (centres unmarked) [Compound 57, N-(3-(dimethylamino)propyl)-N-(1-(2-((6Z,15Z)-henicosa-6,15-dien-11-ylidene)hydrazineyl)-1-oxododecan-3-yl)-2-hexyldecanamide], the “Parent ionizable lipid remaining in liver, Average” value (from here on “Parent ionizable lipid remaining”) in data set [1] (setting [4]) came to 15.88 nmol/g liver. The “Luc Activity” value in data set [2] (Table 10) is listed as 2.43E+06 pg/g liver. Also, in data set [3] (Table 3), the “Final Product % EE” value came to 80%, the “Final Product PDI” value worked out at 0.03 and the “Final Product Z-avg” value is 84 nm.

For the compound `CCCCC/C=C\CCCC(CCC/C=C\CCCCC)NNC(=O)CC(CCCCCCCCC)N(CCCN(C)C)C(=O)CCCCCCCCC` (centres unmarked) [Compound 59, N-(3-(Dimethylamino)propyl)-N-(1-(2-((6Z,15Z)-henicosa-6,15-dien-11-yl)hydrazineyl)-1-oxododecan-3-yl)decanamide], in data set [1] (setting [4]), the “Parent ionizable lipid remaining” value is 22.67 nmol/g liver. Besides, the “Luc Activity” value in data set [2] (Table 10) stood at 1.12E+06 pg/g liver. In data set [3] (Table 3), the “Final Product % EE” value amounted to 99%, the “Final Product PDI” value is reported as 0.07 and the “Final Product Z-avg” value amounted to 82 nm.

As to `CCCCCCCCCCC(CCCCC(=O)OCc1cc(CCCCCC)cc(CCCCCC)c1)N(CCCN(C)C)C(=O)CCCCCCCCC` (centres unmarked) [Compound 60, (3,5-dihexylphenyl)methyl 6-{N-[3-(dimethylamino)propyl]decanamido}hexadecanoate], the “Parent ionizable lipid remaining” value in data set [1] (setting [4]) was determined as 35.39 nmol/g liver. In data set [2] (Table 10), the “Luc Activity” value is 8.23E+06 pg/g liver. In data set [3] (Table 3), the “Final Product % EE” value was 99%, the “Final Product PDI” value came out at 0.05 and the “Final Product Z-avg” value worked out at 73 nm.

Regarding `CCCCCCCCCCCCC(=O)N(CCCN(C)C)C(CCCCCCCCCC)CCCCC(=O)OCc1cc(CCCCCC)cc(CCCCCC)c1` (centres unmarked) [Compound 61, 3,5-Dihexylbenzyl 6-(N-(3-(dimethylamino)propyl)tridecanamido)hexadecanoate], the “Parent ionizable lipid remaining” value in data set [1] (setting [4]) came to 27.21 nmol/g liver. In addition, the “Luc Activity” value in data set [2] (Table 10) was found to be 2.45E+07 pg/g liver. In addition, in data set [3] (Table 3), the “Final Product % EE” value is recorded as 99%, the “Final Product PDI” value was 0.05 and the “Final Product Z-avg” value worked out at 76 nm.

For `CCCCCCCCCCC(CCCCC(=O)OCc1cc(CCCCCC)cc(CCCCCC)c1)N(CCCN(C)C)C(=O)C(CCCCCC)CCCCCCCC` (centres unmarked) [Compound 62, 3,5-Dihexylbenzyl 6-(N-(3-(dimethylamino)propyl)-2-hexyldecanamido)hexadecanoate], the “Parent ionizable lipid remaining” value in data set [1] (setting [4]) stood at 20.17 nmol/g liver. The “Luc Activity” value in data set [2] (Table 10) amounted to 7.84E+06 pg/g liver. Besides, in data set [3] (Table 3), the “Final Product % EE” value was 98%, the “Final Product PDI” value is listed as 0.08 and the “Final Product Z-avg” value came out at 67 nm.

Consider `CCCCCCCCCCC(CCCCCCCC(=O)OCCC(CCCCC)CCCCC)N(CCCCCCCCC(=O)OCCC(CCCCC)CCCCC)C(=O)CCCCN(C)C` (centres unmarked) [Compound 65, 3-Pentyloctyl 9-(5-(dimethylamino)-N-(9-oxo-9-((3-pentyloctyl)oxy)nonyl)-pentanamido)-nonadecanoate], for which the “Parent ionizable lipid remaining” value in data set [1] (Table 17, female mice (n = 4)) turned out to be 27.84 nmol/g liver. Also, the “Luc Activity” value in data set [2] (Table 13) is 3.88E+07 pg/g liver. In addition, in data set [3] (Table 6), the “Final Product % EE” value amounted to 98%, the “Final Product PDI” value was 0.01 and the “Final Product Z-avg” value stood at 83 nm.

`CCCCCCCCCCC(CCCCCCCC(=O)OCC(CCCCCC)CCCCCCCC)N(CCCCCCCCC(=O)OCC(CCCCCC)CCCCCCCC)C(=O)CCCCN(C)C` (centres unmarked) [Compound 72, 2-Hexyldecyl 9-(5-(dimethylamino)-N-(9-((2-hexyldecyl)oxy)-9-oxononyl)pentanamido)-nonadecanoate]: in data set [1] (Table 17, female mice (n = 4)), the “Parent ionizable lipid remaining” value turned out to be 47.56 nmol/g liver. Besides, the “Luc Activity” value in data set [2] (Table 13) was determined as 2.26E+07 pg/g liver. In data set [3] (Table 6), the “Final Product % EE” value is given as 99%, the “Final Product PDI” value is reported as 0.00 and the “Final Product Z-avg” value is given as 79 nm.

For `CCCCCCCCCCC(CCCCCCCC(=O)OCCC(CCCCC)CCCCC)N(CCCCCCCC(=O)OCCC(CCCCC)CCCCC)C(=O)CCCCN(C)C` (centres unmarked) [Compound 73, 3-Pentyloctyl 9-(5-(dimethylamino)-N-(8-oxo-8-((3-pentyloctyl)oxy)octyl)-pentanamido)-nonadecanoate], in data set [1] (setting [5]), the “Parent ionizable lipid remaining” value was found to be 31.41 nmol/g liver. In addition, in data set [2] (Table 14), the “Luc Activity” value worked out at 3.64E+07 pg/g liver. In data set [3] (Table 7), the “Final Product % EE” value came to 99%, the “Final Product PDI” value came out at 0.00 and the “Final Product Z-avg” value amounted to 82 nm.

For the compound `CCCCCCCCCCC(CCCCCCCC(=O)OCC(CCCCCC)CCCCCCCC)N(CCCCCCCC(=O)OCC(CCCCCC)CCCCCCCC)C(=O)CCCCN(C)C` (centres unmarked) [Compound 74, 2-Hexyldecyl 9-(5-(dimethylamino)-N-(8-((2-hexyldecyl)oxy)-8-oxooctyl)-pentanamido)-nonadecanoate], the “Parent ionizable lipid remaining” value in data set [1] (setting [5]) was 17.92 nmol/g liver. Moreover, the “Luc Activity” value in data set [2] (Table 14) was determined as 6.77E+07 pg/g liver. Moreover, in data set [3] (Table 7), the “Final Product % EE” value came out at 99%, the “Final Product PDI” value is recorded as 0.05 and the “Final Product Z-avg” value is reported as 89 nm.

With `CCCCCCCCCCN(C(=O)CCCN(C)C)C(CCCCCCCCC)CCCCCCC(F)C(=O)OCCC(CCCCCC)CCCCCC` (centres unmarked) [Compound 76, 3-Hexylnonyl 9-[N-decyl-4-(dimethylamino)butanamido]-2-fluorooctadecanoate], the “Parent ionizable lipid remaining” value in data set [1] (setting [5]) worked out at 17.86 nmol/g liver. Further, the “Luc Activity” value in data set [2] (Table 14) turned out to be 2.09E+07 pg/g liver. Besides, in data set [3] (Table 7), the “Final Product % EE” value was 98%, the “Final Product PDI” value is 0.07 and the “Final Product Z-avg” value is reported as 69 nm.

On to `CCCCCCCCCCN(C(=O)CCCN(C)C)C(CCCCCCCCC)CCCCCCC(F)C(=O)OCC(CCCCCC)CCCCCCCC` (centres unmarked) [Compound 77, 2-Hexyldecyl 9-(N-decyl-4-(dimethylamino)butanamido)-2-fluorooctadecanoate], for which the “Parent ionizable lipid remaining” value in data set [1] (setting [5]) came out at 30.63 nmol/g liver. Further, the “Luc Activity” value in data set [2] (Table 14) is on record as 3.26E+07 pg/g liver. Moreover, in data set [3] (Table 7), the “Final Product % EE” value is on record as 99%, the “Final Product PDI” value turned out to be 0.09 and the “Final Product Z-avg” value is on record as 63 nm.

Take `CCCCCCCCCCC(CCCCCCC(F)(F)C(=O)OCCC(CCCCC)CCCCC)N(CCCCCCCC(=O)OCCC(CCCCC)CCCCC)C(=O)CCCN(C)C` (centres unmarked) [Compound 87, 3-pentyloctyl 9-[4-(dimethylamino)-N-{8-oxo-8-[(3-pentyloctyl)oxy]octyl}butanamido]-2,2-difluorononadecanoate]: the “Parent ionizable lipid remaining” value in data set [1] (setting [5]) was 3.23 nmol/g liver. The “Luc Activity” value in data set [2] (Table 14) turned out to be 1.18E+06 pg/g liver. In data set [3] (Table 7), the “Final Product % EE” value was 98%, the “Final Product PDI” value came to 0.05 and the “Final Product Z-avg” value is 78 nm.

For the compound `CCCCCCCCCC(CCCCCCC(F)C(=O)OCCC(CCCCC)CCCCC)N(CCCCCCCC(=O)OCCC(CCCCC)CCCCC)C(=O)CCCN(C)C` (centres unmarked) [Compound 88, 3-pentyloctyl 9-[4-(dimethylamino)-N-{8-oxo-8-[(3-pentyloctyl)oxy]octyl}butanamido]-2-fluorooctadecanoate], the “Parent ionizable lipid remaining” value in data set [1] (setting [5]) is recorded as 7.88 nmol/g liver. For the same compound, the “Luc Activity” value in data set [2] (Table 14) is on record as 1.64E+07 pg/g liver. Moreover, in data set [3] (Table 7), the “Final Product % EE” value stood at 99%, the “Final Product PDI” value stood at 0.04 and the “Final Product Z-avg” value came out at 72 nm.
